One assay has as its system endogenous PS1 NTF. Description: UBQLN overexpression in wild-type HEK293 cells, endogenous PS1 NTF immunoblot. The class given is cell-based. The conditions noted are these: normal HEK293 cells. The procedure:
(C) Endogenous PS fragment levels were analyzed in HEK293 cells that were transfected with increasing amounts of UBQLN1 or UBQLN2 expression plasmids. Equivalent amounts of protein lysates were separated by 10% SDS-PAGE and immunoblotted with anti-PS1 NTF antibody. The filter was then reprobed with anti-ubiquilin antibody to ensure overexpression of UBQLN and with an anti-actin antibody to ensure equal protein loading. Overexpression of UBQLN decreases PS1 NTF levels and the extent of reduction was quantified again by densitometric analysis. Graph is quantification of untransfected and […] UBQLN cDNA plasmid transfected lanes.
Preparation of protein lysates, SDS-PAGE and immunoblotting of proteins were described previously. Primary antibodies used were rabbit anti-PS2 loop and rabbit anti-PS2 NH,-terminus, both raised to GST-PS2 fusion proteins; rabbit anti-ubiquilin [43] which reacts with UBQLN1 and UBQLN2 polypeptides; rat anti-PS1 NH2,-terminus (Chemicon International, Temecula, Calif.); rabbit anti-PS1 loop raised to GST-PS1 fusion proteins; goat anti-p27 and goat anti-actin (Santa Cruz Biotechnology, Santa Cruz, Calif.); mouse monoclonal anti-tubulin (Sigma-Aldrich, St. Louis, Mo.); rabbit anti-nicastrin (Abeam, Cambridge, Mass.), rabbit anti-Pen-2 (Zymed, San Francisco, Calif.); and rabbit anti-Aph-la (Covance, Berkeley, Calif.). […]
(In general: In western blotting, separated proteins are transferred to a membrane and probed.)

The test system of another assay is PS1 and PS2 NTF and CTF. Nature of the assay: MG132 treatment of UBQLN-transfected PS1 and PS2 stable cell lines, fragment immunoblot. In kind it is cell-based. As to conditions: UBQLN1 transfected vs untransfected, MG132. As to the method: FIG. 3. […] (A) PS1 cells lines that were either not induced (lanes 1 and 3) or induced with PonA (lanes 2 and 4) and either left untransfected (lanes 1 and 2) or transfected with UBQLN1 expression plasmids (lanes 3 and 4) were treated for 7 h with MG132 after which protein lysates were collected and analyzed by immunoblotting. […] For clarification, if UBQLN did increase the turnover rate then by blocking degradation, turnover would be stopped and PS fragment levels would be similar, or increase, relative to that of untransfected cells. […] Densitometric analysis was used to quantify the extent of reduction. Each experiment was repeated more than three times and similar trends were observed.
(B) Same experiment and results as described in (A) except that PS2 inducible cell lines were used to examine PS2 NTF and CTF levels. […] UBQLN exerts greater effects on PS2 probably because it interacts more strongly with PS2, see [43].
HeLa and HEK293 cells were grown in DMEM supplemented with 10% FBS. PS1 and S2 inducible cell lines were generated by transfection of the pERV-expressing HEK293 cell line (Stratgene, IaIolla, Calif.) with FL human PS2 cDNA under the control of ponasteroneA (PonA)-inducible cassette in plasmid pEGSH (Stratagene). Stable integration of the pEGSH plasmid was achieved by selection for hygromycin resistance. […]

On to “UBQLN1: PS-interacting protein ubiquilin-1, overexpressed in cells from a cDNA expression plasmid”, for which, in the assay on endogenous PS1 NTF, the “reduction of endogenous PS1 NTF levels” value is recorded as “approximately 1.7 fold”. In addition, the “PS1 and PS2 NTF and CTF levels after MG132 treatment” value in the assay with PS1 and PS2 NTF and CTF was “remained reduced”.

For the origin of these results see patent US20110166206A1, “UBIQUILIN REGULATION OF PRESENILIN ENDOPROTEOLYSIS, AND SUPPRESSION OF POLYGLUTAMINE-INDUCED TOXICITY IN CELLS” (UNIVERSITY OF MARYLAND BIOTECHNOLOGY INSTITUTE, priority 2005, published 2011).
